# Experimental data as given in patent publication US5795899A, “Soluble salts of 4-amino-2-(4,4-dimethylimidazolidin-2-on-1-yl) pyrimidine-5-carboxylic acid N-methyl-N-(3-trifluoromethylphenyl)-amide, a process for the preparation thereof, the use thereof as pharmaceuticals and starting materials” (Hoechst Aktiengesellschaft, priority 1992, dated 1998).
# Where two headings read alike, the source gives them in different places.
# Tests used:
# physchem = conditions: water
# [1] = system: carbohydrate-induced hypertriglyceridemia; assay: Inhibition of carbohydrate-induced hypertriglyceridemia; type: in vivo, male Sprague-Dawley rats
# Procedure: Groups of in each case 10 male Sprague-Dawley rats (supplied by the breeder Mollegard with a weight of 250-280 g) received on each of 4 consecutive days one administration of the compound dissolved in PEG 400 by gavage. In addition, after the 3rd administration and 8 and 24 hours later they received 2.5 g of fructose/kg, likewise by gavage. Moreover, after the 3rd administration of product, 50% strength fructose solution was offered to them as drinking water ad libitum, and the food was withdrawn. Retroorbital removal of blood, from which the serum was obtained for the triglyceride determination and VLDL preparation in the ultracentrifuge (flotation at d=1.006), took place 3 hours after the last product/fructose administration. The food received by the animals from 1 week before the 1st administration and up to the 3rd administration was a diet with 40% casein in the feed meal.
# The animals develop, as a result of this treatment, a hypertriglyceridemia which approximately corresponds to Fredrickson phenotype IV in humans. The serum triglycerides of the normal animals increased from 0.54 to 1.1 mmol/l, and the VLDL triglycerides from 0.67 to 1.81.
# serum lipoproteins = assay: Effect on serum lipoproteins of normolipemic male rats in a subchronic test; type: in vivo, male Wistar rats, HOE: WISKf (SPF 71) strain; conditions: 100 mg/kg/day, oral, 7 days
# Procedure: 4.1 Effect on serum lipoproteins of normolipemic male rats in a subchronic test
# Groups of in each case 10 male rats of the HOE: WISKf (SPF 71) strain with an initial weight above 180 g received once a day (in the morning) the test product or the comparison product in 1% aqueous ®Tylose MH 300 solution by stomach tube (0.5 ml/100 g of body weight); the control group in each case received only the vehicle. The last (7th) administration took place 24 hours before removal of blood and sacrifice. There was free access to food and water during the test. The food was withdrawn 24 hours before the removal of blood.
# The serum from all 10 rats in a group was pooled for the analysis of the serum lipoproteins. The serum lipoproteins were separated with a preparative ultracentrifuge (KONTRON TGA 65, Rotor BECKMAN 50.4 Ti).
# The following conditions specified by Koga, S., Horwitz, D. L., and Scanu, A. M., Journal of Lipid Research 10, 577 (1969) and Havel, R. J., Eder, H. A., and Bragdon, H. H., J. Clin. Invest. 34, 1345 (1955) were used to separate VLDL, LDL and HDL:
# Test kits from BOEHRINGER/Mannheim were used for the enzymatic determination of cholesterol and triglycerides in the separated lipoprotein fractions (compare Siedel, J., Schlumberger, H., Klose, S., Ziegenhorn, J. and Wahlefeld, A. W., J. Clin. Chem. Clin. Biochem. 19, 838 (1981) and Wahlefeld, A. W., in: H. O. Bergmeier: Methoden der enzymatischen Analyse (Methods of Enzymatic Analysis), 2nd edition, Volume II, Verlag Chemie 1974, page 1878). The proteins were determined by the method of Lowry (Lowry, O. H., Roseborough, N. J., Farr, A. L. and R. J. Randell, J. Biol. Chem. 193, 265 (1951)).
# Clofibrate was used as comparison product.
# hypercholesterolemia = assay: Effect on experimental hypercholesterolemia in male rats; type: in vivo, male Wistar rats, HOE: WISKf (SPF 71) strain; conditions: 100 mg/kg/day, oral, 7 days
# Procedure: Groups of in each case 10 male rats of the HOE: WISKf (SPF 71) strain with a weight of about 200 g received each day in the morning a cocktail which contained the substances required to generate a combined dietetic/hormonal hypercholesterolemia, and in each case the product to be tested for the inhibition of hypercholesterolemia, in appropriate dosage. The cocktail was composed of a mixture of 100 g of cholesterol, 30 g of propylthiouracil and 100 g of cholic acid in 1 l of peanut oil. 1 ml of this/100 g of body weight was administered by gavage. The products to be tested were suspended in this cocktail in a concentration such that it contained the daily dose indicated in Table 4 on administration of the amount mentioned above. The other procedure for the treatment and the analysis of the individual parameters were carried out as indicated under 4.1.
# Clofibrate was used as comparison product. The results are compiled in Table 4, wherein a) indicates the absolute values and b) indicates the percentage changes.
# [2] = system: bronchial carcinoma cells, A 549; assay: MTT assay, inhibition of cell proliferation, A 549; type: cell-based; conditions: Homo sapiens, A549; 72 hours incubation
# Procedure: (§1) The reduced inhibitory effect on cell proliferation was tested on exponentially growing animal (mouse leukemia cells, L 1210) and human (bronchial carcinoma cells, A 549; colon carcinoma cells, HT 29) tumor cells. This entailed the tumor cells being incubated in RPMI standard medium with various concentrations of the test substances for 72 hours. Cell incubations only in fresh medium served as control. Incubations were set up in quadruplet. […] After incubation for a further 7 to 24 hours, the cell supernatant was carefully removed and the formazan dye in the cells was solubilized by adding DMSO and measured quantitatively by photometry at 492 nm. The ratio of the extinction of the substance incubations to the control incubation was quantified. The coefficient of variation in each incubation series was less than 15%. The following Table 6 indicates the IC50 values (IC50 [μg/ml] is the concentration of the test substance per ml which is necessary for 50% inhibition) from these investigations.
# [3] = system: mouse leukemia cells, L 1210; assay: MTT assay, inhibition of cell proliferation, L1210; type: cell-based; conditions: 72 hours incubation
# Procedure: as §1
# [4] = system: colon carcinoma cells, HT 29; assay: MTT assay, inhibition of cell proliferation, HT 29; type: cell-based; conditions: Homo sapiens, 72 hours incubation
# Procedure: as §1
# [5] = Table 1, Temp. [°C]: No. 1 25.0, 2 23.0, 3 26.2, 4 25.1, 5 25.2, 6 24.1, 7 24.5, 8 24.2, 9 24.2, 10 25.7, 11 25.8
# [6] = Table 2, Temp. [°C]: hydrochloride 25.0, nitrate 23.5, p-toluenesulfonate 23.2, hydrogen (R,R)-tartrate 24.6, free base 24.8
compound,measurement,setting,value
"CC1NC(=O)N(c2ncc(C(=O)Nc3cccc(C(F)(F)F)c3)c(N)n2)C1C (stereo not drawn) [No. 11, reference compound]",1 part by mass dissolves in . . . parts of H2 O,[5],277 parts of H2 O
"CN(C(=O)c1cnc(N2CC(C)(C)NC2=O)nc1N)c1cccc(C(F)(F)F)c1.O=C(O)C(O)C(O)C(=O)O [Hydrogen (R,R)-tartrate, 4-amino-2-(4,4-dimethyl-2-oxo-1-imidazolidinyl)pyrimidine-5-carboxylic acid N-methyl-N-(3-trifluoromethylphenyl)amide hydrogen (R,R)-tartrate]",1 part by mass dissolves in . . . parts of H2 O,[6],< 9.90 parts of H2 O
same,solubility,physchem,> 91 mg/mL
"CCCC1(C)CN(c2ncc(C(=O)Nc3cccc(C(F)(F)F)c3)c(N)n2)C(=O)N1 (stereo not drawn) [No. 10, reference compound]",1 part by mass dissolves in . . . parts of H2 O,[5],255 parts of H2 O
same,Solubility in water: Molarity,[5],8.54 × 10^-3
CC1(C)CN(c2ncc(C(=O)Nc3cc(C(F)(F)F)ccc3Cl)c(N)n2)C(=O)N1 [Compound 4],1 part by mass dissolves in . . . parts of H2 O,[5],217 parts of H2 O
"CN(C(=O)c1cnc(N2CC(C)(C)NC2=O)nc1N)c1cccc(C(F)(F)F)c1.O=[N+]([O-])O [Nitrate, 4-amino-2-(4,4-dimethyl-2-oxo-1-imidazolidinyl)pyrimidine-5-carboxylic acid N-methyl-N-(3-trifluoromethylphenyl)amide nitrate]",1 part by mass dissolves in . . . parts of H2 O,[6],8.13 parts of H2 O
same,solubility,physchem,110 mg/mL
COc1ccc(C(F)(F)F)cc1NC(=O)c1cnc(N2CC(C)(C)NC2=O)nc1N [Compound 6],Solubility in water (in words),,sparingly soluble in water
same,1 part by mass dissolves in . . . parts of H2 O,[5],75 parts of H2 O
CC1(C)CN(c2ncc(C(=O)Nc3ccc(Cl)c(C(F)(F)F)c3)c(N)n2)C(=O)N1 [Compound 5],1 part by mass dissolves in . . . parts of H2 O,[5],1055 parts of H2 O
CC1(C)CN(c2ncc(C(=O)Nc3cccc(C(F)(F)F)c3)c(N)n2)C(=O)N1 [Compound 2],Solubility in water: Concentration in % by weight,[5],0.08 % by weight
same,Solubility in water: Molarity,[5],0.90 × 10^-3
"CC1(C)CN(c2ncc(C(=O)Nc3cccc(C(F)(F)F)c3)c(N)n2)C(=O)N1 [imanixil, 4-amino-2-(4,4-dimethylimidazolidin-2-on-1-yl)pyrimidine-5-carboxylic acid N-(3-trifluoromethylphenyl)amide, reference compound]",Solubility in water (in words),,exceptionally slightly soluble in water
COc1ccc(NC(=O)c2cnc(N3CC(C)(C)NC3=O)nc2N)cc1C(F)(F)F [Compound 7],1 part by mass dissolves in . . . parts of H2 O,[5],554 parts of H2 O
CCCC1(C)CN(c2ncc(C(=O)Nc3cc(C(F)(F)F)ccc3Cl)c(N)n2)C(=O)N1 (stereo not drawn) [Compound 8],1 part by mass dissolves in . . . parts of H2 O,[5],781 parts of H2 O
"CCOC(=O)C(C)(C)Oc1ccc(Cl)cc1 [Clofibrate, reference compound]","Triglycerides in serum, % change from fructose control","[1]; 100 mg/kg/day, oral, 4 days",-25%
same,"Triglycerides in the VDVL fraction, % change from fructose control","[1]; 100 mg/kg/day, oral, 4 days",-37%
same,"Triglycerides in the VDVL fraction, pool n = 10","[1]; 100 mg/kg/day, oral, 4 days",1.15 mmol/L
same,Triglycerides in serum (x),"[1]; 100 mg/kg/day, oral, 4 days, mean x",0.83 mmol/L
same,Inhibitory effect on increase in VLDL triglycerides (in words),[1]; dose 100 times higher than 1 mg/kg/day,only a slight inhibitory effect
same,"% change compared with control, protein LDL",serum lipoproteins,-32%
same,"% change compared with control, total cholesterol LDL",serum lipoproteins,-31%
same,"% change compared with control, total cholesterol VLDL",serum lipoproteins,-30%
same,"% change compared with control, triglycerides VLDL",serum lipoproteins,-34%
same,"% change compared with control, protein ""HDL"" d > 1.04",hypercholesterolemia,-27%
same,"% change compared with control, protein LDL",hypercholesterolemia,+16%
same,"% change compared with control, protein VLDL",hypercholesterolemia,-63%
same,"% change compared with control, total cholesterol ""HDL"" d > 1.04",hypercholesterolemia,+10%
same,"% change compared with control, total cholesterol LDL",hypercholesterolemia,+16%
same,"% change compared with control, total cholesterol VLDL",hypercholesterolemia,+27%
same,"% change compared with control, triglycerides VLDL",hypercholesterolemia,+21%
same,"Lipoprotein fraction protein ""HDL""",hypercholesterolemia,3920
same,Lipoprotein fraction protein LDL,hypercholesterolemia,1435
same,Lipoprotein fraction protein VLDL,hypercholesterolemia,809
same,"Lipoprotein fraction total cholesterol ""HDL""",hypercholesterolemia,648
same,Lipoprotein fraction total cholesterol LDL,hypercholesterolemia,5434
same,Lipoprotein fraction total cholesterol VLDL,hypercholesterolemia,5924
same,Lipoprotein fraction triglycerides VLDL,hypercholesterolemia,1770
same,"Serum % change compared with control at the end of treatment, total cholesterol",hypercholesterolemia,+20%
same,"Serum % change compared with control at the end of treatment, triglycerides",hypercholesterolemia,+26%
same,"Triglycerides, pool",hypercholesterolemia,3.68 mmol/L
same,Total cholesterol (x),hypercholesterolemia; mean x,880 mg/dL
"CN(C(=O)c1cnc(N2CC(C)(C)NC2=O)nc1N)c1cccc(C(F)(F)F)c1.Cc1ccc(S(=O)(=O)O)cc1 [p-Toluenesulfonate, 4-amino-2-(4,4-dimethyl-2-oxo-1-imidazolidinyl)pyrimidine-5-carboxylic aci d N-methyl-N-(3-trifluoromethylphenyl)amide p-toluenesulfonate]",1 part by mass dissolves in . . . parts of H2 O,[6],14.44 parts of H2 O
same,solubility,physchem,65 mg/mL
"CC1(C)CN(c2ncc(C(=O)Nc3cccc(C(F)(F)F)c3)c(N)n2)C(=O)N1 [No. 1, 4-amino-2-(4,4-dimethylimidazolidin-2-on-1-yl)pyrimidine-5-carboxylic acid N-(3-trifluoromethylphenyl)amide, reference compound]",IC50,[2],3.4 µg/mL
same,IC50,[3],0.7 µg/mL
same,IC50,[4],4.3 µg/mL
"CCCC1(C)CN(c2ncc(C(=O)Nc3ccc(Cl)c(C(F)(F)F)c3)c(N)n2)C(=O)N1 (stereo not drawn) [No. 9, reference compound]",1 part by mass dissolves in . . . parts of H2 O,[5],725 parts of H2 O
same,Solubility in water: Concentration in % by weight,[5],0.13 % by weight
CC1(C)CN(c2ncc(C(=O)Nc3ccc(F)c(C(F)(F)F)c3)c(N)n2)C(=O)N1 [Compound 3],1 part by mass dissolves in . . . parts of H2 O,[5],703 parts of H2 O
